Read-outs that look alike come from different tables or passages of the source.
Molecular target: PHGDH (Homo sapiens (Human), UniProt O43175)
Assay: 3-Phosphoglycerate Dehydrogenase (PHGDH) Fluorescence Intensity Assay, run at two NAD/3-PG ratios: PHGDH_HIGH_NAD/3-PG (250 μM NAD/500 μM 3-PG) and PHGDH_500_NAD/3-PG (500 μM NAD/500 μM 3-PG)
Type: biochemical
[1] = 250 μM NAD/500 μM 3-PG, read-out: IC50 (PHGDH_HIGH_NAD/3-PG)
[2] = 500 μM NAD/500 μM 3-PG, read-out: IC50 (PHGDH_500_NAD/3-PG)

Sequence of PHGDH (O43175 2-533 limits assumed): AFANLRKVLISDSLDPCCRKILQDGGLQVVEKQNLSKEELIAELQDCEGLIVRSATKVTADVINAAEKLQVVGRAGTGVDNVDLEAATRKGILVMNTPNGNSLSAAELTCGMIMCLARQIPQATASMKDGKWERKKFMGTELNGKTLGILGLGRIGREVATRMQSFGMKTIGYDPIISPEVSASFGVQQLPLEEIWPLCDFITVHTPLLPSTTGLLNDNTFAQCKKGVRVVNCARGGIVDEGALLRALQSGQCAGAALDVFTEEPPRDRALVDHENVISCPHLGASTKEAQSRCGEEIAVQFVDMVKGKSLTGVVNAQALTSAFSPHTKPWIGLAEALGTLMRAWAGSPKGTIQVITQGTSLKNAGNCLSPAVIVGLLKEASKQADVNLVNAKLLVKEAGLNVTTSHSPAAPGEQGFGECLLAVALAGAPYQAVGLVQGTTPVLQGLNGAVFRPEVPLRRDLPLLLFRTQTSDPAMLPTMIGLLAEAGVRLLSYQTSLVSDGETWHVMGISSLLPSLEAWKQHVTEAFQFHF
From the text: This assay is used to identify compounds which inhibit the enzymatic activity of PHGDH which catalyzes the reaction of 3-Phosphoglycerate (3-PG) and NAD to 3-Phosphohydroxypyruvate and NADH.
The produced NADH is used in a coupled reaction for Diaphorase mediated reduction of Resazurin to Resorufin which can be measured in a Fluorescence Intensity readout.
The full length version of PHGDH enzyme was expressed in E. coli with an N-terminal HIS-tag and a TEV cleavage site.
The 3-Phosphoglycerate substrate was purchased from Sigma. NAD, Diaphorase and Resazurin were purchased from Sigma Aldrich.
Compounds are dispensed onto assay plates (black, low volume, flat bottom 384 well, Corning) using an Access Labcyte Workstation with the Labcyte Echo 55× from a DMSO solution. For the chosen highest assay concentration of 100 μM, 150 nl of compound solution are transferred from a 10 mM DMSO compound stock solution. A series of 11 concentrations (10 1:5 steps) is transferred for each compound.
The assay has been performed at two different NAD/3-PG ratios (final assay concentrations):
Plates are kept at room temperature. After 240 minutes incubation time the fluorescence signal is measured in a PerkinElmer Envision HTS Multilabel Reader with an excitation wavelength at 530-560 nm and an emission wavelength at 590 nm.
Each plate contains negative controls (diluted DMSO instead of test compound; reaction as described with PHGDH protein) and positive controls (diluted DMSO instead of test compound; reaction as described with buffer instead of PHGDH protein). Negative and positive control values are used for normalization.
IC50 values are calculated and analyzed in the MEGALAB IC50 application using a 4 parametric logistic model.

Compound	IC50 [1]	IC50 [2]
Cc1cc2c(cc(C(=O)N[C@H](C)c3ccc(S(=O)(=O)CC(=O)O)cc3)n2C)c(Cl)c1F [Example 03-014, 2-{4-[(1R)-1-[(4-chloro-5-fluoro-1,6-dimethyl-1H-indol-2-yl)formamido]ethyl]benzenesulfonyl}acetic acid]	5 nM	7 nM
Cc1cc2c(cc(C(=O)N[C@H](CO)c3ccc([S@+]([O-])CC(=O)O)cc3)n2C)c(F)c1F [Example 12-009, 2-[(R)-4-[(1S)-1-[(4,5-difluoro-1,6-dimethyl-1H-indol-2-yl)formamido]-2-hydroxyethyl]benzenesulfinyl]acetic acid]		32 nM
CN1CCN(c2cc(Cl)c3cc(C(=O)N[C@H](CO)c4ccc(S(=O)(=O)CC(=O)O)cc4)n(C)c3c2)CC1 [Example 03-017, 2-{4-[(1S)-1-{[4-chloro-1-methyl-6-(4-methylpiperazin-1-yl)-1H-indol-2-yl]formamido}-2-hydroxyethyl]benzenesulfonyl}acetic acid]	40 nM	146 nM
COC(=O)CS(=O)(=O)c1ccc([C@H](C)NC(=O)c2cc3c(Cl)c(Cl)c(C)cc3n2C)cc1 [Example 01-017, methyl 2-{4-[(1S)-1-[(4,5-dichloro-1,6-dimethyl-1H-indol-2-yl)formamido]ethyl]benzenesulfonyl}acetate]	6720 nM	
Cc1cc(Cl)c2cc(C(=O)N[C@H](C)c3ccc([S+]([O-])CC(=O)OC(C)C)cc3)n(C)c2c1 (stereo partly drawn) [Example 13-007, propan-2-yl 2-{4-[(1R)-1-[(4-chloro-1,6-dimethyl-1H-indol-2-yl)formamido]ethyl]benzenesulfinyl}acetate]	2140 nM	
C[C@@H](NC(=O)c1cc2c(Cl)cc(N3CCN(C)CC3)cc2n1C)c1ccc(S(=O)(=O)CC(=O)O)cc1 [Example 03-018, 2-{4-[(1R)-1-{[4-chloro-1-methyl-6-(4-methylpiperazin-1-yl)-1H-indol-2-yl]formamido}ethyl]benzenesulfonyl}acetic acid]	84 nM	292 nM
COc1cc(-c2cc(C(=O)N[C@H](C)c3ccc(S(=O)(=O)CC(=O)OC(C)C)cc3)n(C)n2)ccc1Cl [Example 02-013, propan-2-yl 2-{4-[(1R)-1-{[3-(4-chloro-3-methoxyphenyl)-1-methyl-1H-pyrazol-5-yl]formamido}ethyl]benzenesulfonyl}acetate]	6120 nM	
Cc1cc2c(cc(C(=O)N[C@H](CO)c3ccc(S(=O)(=O)CC(=O)OCC(C)(C)CO)cc3)n2C)c(Cl)c1Cl [Example 09-044, 3-hydroxy-2,2-dimethylpropyl 2-{4-[(1S)-1-[(4,5-dichloro-1,6-dimethyl-1H-indol-2-yl)formamido]-2-hydroxyethyl]benzenesulfonyl}acetate]		419 nM
Cc1cc2c(cc(C(=O)N[C@H](CO)c3ccc([S+]([O-])CC(=O)OC(C)C)cc3)n2C)c(F)c1F (stereo partly drawn) [Example 13-010, propan-2-yl 2-{4-[(1S)-1-[(4,5-difluoro-1,6-dimethyl-1H-indol-2-yl)formamido]-2-hydroxyethyl]benzenesulfinyl}acetate]		1060 nM
Cc1cc2c(cc(C(=O)N[C@H](CO)c3ccc([S+]([O-])CC(=O)OC(C)C)cc3)n2C)c(Cl)c1Cl (stereo partly drawn) [Example 13-009, propan-2-yl 2-{4-[(1S)-1-[(4,5-dichloro-1,6-dimethyl-1H-indol-2-yl)formamido]-2-hydroxyethyl]benzenesulfinyl}acetate]	428 nM	797 nM
COC(=O)C[S@@+]([O-])c1ccc([C@@H](C)NC(=O)c2cc3c(Cl)cc(C)cc3n2C)cc1 [Example 11-006, methyl 2-[(R)-4-[(1R)-1-[(4-chloro-1,6-dimethyl-1H-indol-2-yl)formamido]ethyl]benzenesulfinyl]acetate]	1120 nM	
Cc1cc(Cl)c2cc(C(=O)N[C@H](C)c3ccc(S(=O)(=O)C4(C(=O)O)CCCC4)cc3)n(C)c2c1 [Example 07-004, 1-{4-[(1R)-1-[(4-chloro-1,6-dimethyl-1H-indol-2-yl)formamido]ethyl]benzenesulfonyl}cyclopentane-1-carboxylic acid]	6 nM	
Cc1cc(Cl)c2cc(C(=O)N[C@H](CO)c3ccc(S(=O)(=O)CC(=O)OCCCO)cc3)n(C)c2c1 [Example 09-033, 3-hydroxypropyl 2-{4-[(1S)-1-[(4-chloro-1,6-dimethyl-1H-indol-2-yl)formamido]-2-hydroxyethyl]benzenesulfonyl}acetate]	98 nM	
Cc1cc(Cl)c2cc(C(=O)N[C@H](C)c3ccc(S(=O)(=O)CC(=O)OCC(CO)CO)cc3)n(C)c2c1 [Example 09-027, 3-hydroxy-2-(hydroxymethyl)propyl 2-{4-[(1R)-1-[(4-chloro-1,6-dimethyl-1H-indol-2-yl)formamido]ethyl]benzenesulfonyl}acetate]	160 nM	
Cc1cc(Cl)c2cc(C(=O)N[C@H](CO)c3ccc([S+]([O-])CC(=O)O)cc3)n(C)c2c1 (stereo partly drawn) [Example 12-007, 2-{4-[(1S)-1-[(4-chloro-1,6-dimethyl-1H-indol-2-yl)formamido]-2-hydroxyethyl]benzenesulfinyl}acetic acid]	8 nM	11 nM
CCC(C(=O)O)S(=O)(=O)c1ccc([C@@H](C)NC(=O)c2cc3c(Cl)cc(C)cc3n2C)cc1 (stereo partly drawn) [Example 07-011, 2-{4-[(1R)-1-[(4-chloro-1,6-dimethyl-1H-indol-2-yl)formamido]ethyl]benzenesulfonyl}butanoic acid]	11 nM	
Cc1cc(Cl)c2cc(C(=O)N[C@H](C)c3ccc(S(=O)(=O)C4(C(=O)O)CC4)cc3)n(C)c2c1 [Example 07-013, 1-{4-[(1R)-1-[(4-chloro-1,6-dimethyl-1H-indol-2-yl)formamido]ethyl]benzenesulfonyl}cyclopropane-1-carboxylic acid]	10 nM	15 nM
COC(=O)C[S@@+]([O-])c1ccc([C@@H](CO)NC(=O)c2cc3c(Cl)c(Cl)c(C)cc3n2C)cc1 [Example 11-002, methyl 2-[(R)-4-[(1S)-1-[(4,5-dichloro-1,6-dimethyl-1H-indol-2-yl)formamido]-2-hydroxyethyl]benzenesulfinyl]acetate]	189 nM	291 nM
Cc1cc2c(cc(C(=O)N[C@H](C)c3ccc(S(=O)(=O)C(C)(C)C(=O)O)cc3)n2C)c(Cl)c1Cl [Example 07-015, 2-{4-[(1R)-1-[(4,5-dichloro-1,6-dimethyl-1H-indol-2-yl)formamido]ethyl]benzenesulfonyl}-2-methylpropanoic acid]	5 nM	9 nM
CC(C)OC(=O)C(C)S(=O)(=O)c1ccc([C@@H](C)NC(=O)c2cc(-c3ccccc3)nn2C)cc1 (stereo partly drawn) [Example 06-004, propan-2-yl 2-{4-[(1R)-1-[(1-methyl-3-phenyl-1H-pyrazol-5-yl)formamido]ethyl]benzenesulfonyl}propanoate]	78200 nM	
Cc1cc(Cl)c2cc(C(=O)N[C@H](C)c3ccc(S(=O)(=O)CC(=O)OCCOC(=O)C(C)(C)C)cc3)n(C)c2c1 [Example 09-023, 2-[(2-{4-[(1R)-1-[(4-chloro-1,6-dimethyl-1H-indol-2-yl)formamido]ethyl]benzenesulfonyl}acetyl)oxy]ethyl 2,2-dimethylpropanoate]	1800 nM	
Cc1cc2c(cc(C(=O)N[C@H](CO)c3ccc([S@+]([O-])CC(=O)OC4CCOCC4)cc3)n2C)c(Cl)c1Cl [Example 13-005, oxan-4-yl 2-[(R)-4-[(1S)-1-[(4,5-dichloro-1,6-dimethyl-1H-indol-2-yl)formamido]-2-hydroxyethyl]benzenesulfinyl]acetate]		191 nM
Cc1cc2c(cc(C(=O)N[C@H](CO)c3ccc(S(=O)(=O)CC(=O)OCCO)cc3)n2C)c(Cl)c1Cl [Example 09-036, 2-hydroxyethyl 2-{4-[(1S)-1-[(4,5-dichloro-1,6-dimethyl-1H-indol-2-yl)formamido]-2-hydroxyethyl]benzenesulfonyl}acetate]		107 nM
C[C@@H](NC(=O)c1cc(-c2ccc(F)cc2)nn1C)c1ccc(S(=O)(=O)CC(=O)O)cc1 [Example 04-002, 2-{4-[(1R)-1-{[3-(4-fluorophenyl)-1-methyl-1H-pyrazol-5-yl]formamido}ethyl]benzenesulfonyl}acetic acid]	76 nM	
COC(=O)C1(S(=O)(=O)c2ccc([C@@H](CO)NC(=O)c3cc4c(Cl)cc(C)cc4n3C)cc2)CCOCC1 [Example 05-021, methyl 4-{4-[(1S)-1-[(4-chloro-1,6-dimethyl-1H-indol-2-yl)formamido]-2-hydroxyethyl]benzenesulfonyl}oxane-4-carboxylate]	2450 nM	
Cc1cc(Cl)c2cc(C(=O)NCc3ccc(S(=O)(=O)CC(=O)OC(C)C)cc3)n(C)c2c1 [Example 01-031, propan-2-yl 2-(4-{[(4-chloro-1,6-dimethyl-1H-indol-2-yl)formamido]methyl}benzenesulfonyl)acetate]	> 20000 nM	
Cc1cc(Cl)c2cc(C(=O)N[C@H](CO)c3ccc(S(=O)(=O)CC(=O)OCC4COC4)cc3)n(C)c2c1 [Example 09-035, oxetan-3-ylmethyl 2-{4-[(1S)-1-[(4-chloro-1,6-dimethyl-1H-indol-2-yl)formamido]-2-hydroxyethyl]benzenesulfonyl}acetate]	54 nM	
COC(=O)CS(=O)(=O)c1ccc(CNC(=O)c2cc3c(Cl)cc(C)cc3n2C)cc1 [Example 01-030, methyl 2-(4-{[(4-chloro-1,6-dimethyl-1H-indol-2-yl)formamido]methyl}benzenesulfonyl)acetate]	3390 nM	
Cc1cc2c(cc(C(=O)N[C@H](CO)c3ccc([S@@+]([O-])CC(=O)OC4CCOCC4)cc3)n2C)c(Cl)c1Cl [Example 13-003, oxan-4-yl 2-[(S)-4-[(1S)-1-[(4,5-dichloro-1,6-dimethyl-1H-indol-2-yl)formamido]-2-hydroxyethyl]benzenesulfinyl]acetate]		211 nM
Cc1cc2c(cc(C(=O)N[C@H](C)c3ccc(S(=O)(=O)CC(=O)OC(C)C)cc3)n2C)c(Cl)c1F [Example 01-033, propan-2-yl 2-{4-[(1R)-1-[(4-chloro-5-fluoro-1,6-dimethyl-1H-indol-2-yl)formamido]ethyl]benzenesulfonyl}acetate]	36500 nM	

Source: patent US11304929B2, “Tosylacetate based compounds and derivatives thereof as PHGDH inhibitors” (priority 2017, dated 2022)
